In patent EP3981777A1, “ANTIVIRAL COMPOUNDS AND POLYMERS” (priority 2020, dated 2022):

Biological target: T1, DC-SIGN (Homo sapiens, UniProt Q9NNX6)
T1 construct: host or cells: B-THP-1 (Raji B) cells, DC-SIGN+
T1 sequence (Q9NNX6 1-404): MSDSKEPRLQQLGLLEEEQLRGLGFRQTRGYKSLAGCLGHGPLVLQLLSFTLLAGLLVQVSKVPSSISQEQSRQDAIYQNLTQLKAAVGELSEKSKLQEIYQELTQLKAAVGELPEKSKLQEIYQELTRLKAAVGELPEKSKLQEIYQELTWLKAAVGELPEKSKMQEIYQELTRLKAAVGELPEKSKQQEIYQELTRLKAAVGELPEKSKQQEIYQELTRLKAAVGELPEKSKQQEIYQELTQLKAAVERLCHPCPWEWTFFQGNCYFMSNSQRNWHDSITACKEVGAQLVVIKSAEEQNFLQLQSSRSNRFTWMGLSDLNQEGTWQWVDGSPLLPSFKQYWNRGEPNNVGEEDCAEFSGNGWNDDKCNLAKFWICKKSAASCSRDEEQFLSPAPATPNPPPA
Assay: cell-based

Question: Which IC50 does the source give for CO[C@H]1O[C@H](CO)[C@@H](O)[C@H](O)[C@@H]1O [MeMan, methyl α-D-mannoside] here?
Answer: 6.5 mM
